{"source": "PubChem BioAssay AID248", "about": "(DTP/NCI, 2004)", "tested_on": "L1210 leukemia ip in BDF1 mice, survival T/C", "assay": "NCI In Vivo Anticancer Drug Screen. Data for tumor model L1210 Leukemia (intraperitoneal) in B6D2F1 (BDF1) mice", "settings": "endpoint: mean survival time, higher = longer survival", "how_it_was_run": "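Transplantable tumor model; survival measured in treated vs vehicle control mice. Value = treated/control.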", "key": {"[1]": {"settings": "dose: 100.0 mg/kg/injection, schedule: Q01DX001 (ip), vehicle: saline"}, "[2]": {"settings": "dose: 200.0 mg/kg/injection, schedule: Q01DX001 (ip), vehicle: saline"}, "[3]": {"settings": "dose: 100.0 mg/kg/injection, schedule: Q04DX003 (ip), vehicle: saline with Tween-80"}, "[4]": {"settings": "dose: 200.0 mg/kg/injection, schedule: Q04DX003 (ip), vehicle: saline with Tween-80"}, "[5]": {"settings": "dose: 400.0 mg/kg/injection, schedule: Q04DX003 (ip), vehicle: saline with Tween-80"}}, "note": "Values joined by “and” are separate entries in the source; they are usually repeats but may differ in a detail not shown here. Equal values may be shown once. Toxic doses and inconclusive results are not listed."}
{"molecule": "COc1ccc(C2CCc3cc(OC)c(OC)cc3C2=O)cc1OC", "note": "(stereo unspecified)", "values": [{"measurement": "T/C", "setting": "dose: 20.0 mg/kg/injection, schedule: Q01DX009 (ip), vehicle: saline with Tween-80", "result": "93 % of control"}, {"measurement": "T/C", "setting": "dose: 40.0 mg/kg/injection, schedule: Q01DX009 (ip), vehicle: saline with Tween-80", "result": "94 % of control"}, {"measurement": "T/C", "setting": "dose: 80.0 mg/kg/injection, schedule: Q01DX009 (ip), vehicle: saline with Tween-80", "result": "90 % of control"}, {"measurement": "T/C", "setting": "dose: 120.0 mg/kg/injection, schedule: Q01DX009 (ip), vehicle: saline with Tween-80", "result": "93 % of control"}, {"measurement": "T/C", "setting": "dose: 120.0 mg/kg/injection, schedule: Q01DX009 (ip), vehicle: saline", "result": "107 % of control"}, {"measurement": "T/C", "setting": "dose: 240.0 mg/kg/injection, schedule: Q01DX009 (ip), vehicle: saline with Tween-80", "result": "96 % of control"}, {"measurement": "T/C", "setting": "dose: 240.0 mg/kg/injection, schedule: Q01DX009 (ip), vehicle: saline", "result": "96 % of control"}, {"measurement": "T/C", "setting": "dose: 360.0 mg/kg/injection, schedule: Q01DX009 (ip), vehicle: saline", "result": "93 % of control"}, {"measurement": "T/C", "setting": "dose: 545.0 mg/kg/injection, schedule: Q01DX009 (ip), vehicle: saline", "result": "91 % of control"}]}
{"molecule": "CCOc1nc(OCC)c2[nH]cnc2n1", "values": [{"measurement": "T/C", "setting": "[1]", "result": "101 % of control"}, {"measurement": "T/C", "setting": "[2]", "result": "96 % of control"}, {"measurement": "T/C", "setting": "dose: 400.0 mg/kg/injection, schedule: Q01DX001 (ip), vehicle: saline", "result": "102 % of control"}]}
{"molecule": "CC[C@@]1(O)C(=O)OCc2c1cc1n(c2=O)Cc2cc3c(OC)cccc3nc2-1", "values": [{"measurement": "T/C", "setting": "dose: 0.25 mg/kg/injection, schedule: Q01DX009 (ip), vehicle: saline with Tween-80", "result": "122 % of control"}, {"measurement": "T/C", "setting": "dose: 0.5 mg/kg/injection, schedule: Q01DX009 (ip), vehicle: carboxymethylcellulose (CMC)", "result": "120 % of control"}, {"measurement": "T/C", "setting": "dose: 0.5 mg/kg/injection, schedule: Q01DX009 (ip), vehicle: saline with Tween-80", "result": "122 % of control"}, {"measurement": "T/C", "setting": "dose: 1.0 mg/kg/injection, schedule: Q01DX009 (ip), vehicle: carboxymethylcellulose (CMC)", "result": "107 % of control"}, {"measurement": "T/C", "setting": "dose: 1.0 mg/kg/injection, schedule: Q01DX009 (ip), vehicle: saline with Tween-80", "result": "162 % of control"}, {"measurement": "T/C", "setting": "dose: 4.0 mg/kg/injection, schedule: Q01DX009 (ip), vehicle: carboxymethylcellulose (CMC)", "result": "88 % of control"}, {"measurement": "T/C", "setting": "dose: 4.0 mg/kg/injection, schedule: Q04DX003 (ip), vehicle: saline with Tween-80", "result": "173 % of control"}, {"measurement": "T/C", "setting": "dose: 8.0 mg/kg/injection, schedule: Q04DX003 (ip), vehicle: saline with Tween-80", "result": "215 % of control"}, {"measurement": "T/C", "setting": "dose: 12.5 mg/kg/injection, schedule: Q04DX003 (ip), vehicle: saline with Tween-80", "result": "123 % of control"}, {"measurement": "T/C", "setting": "dose: 25.0 mg/kg/injection, schedule: Q04DX003 (ip), vehicle: saline with Tween-80", "result": "96 % of control"}, {"measurement": "T/C", "setting": "dose: 50.0 mg/kg/injection, schedule: Q04DX003 (ip), vehicle: saline with Tween-80", "result": "93 % of control"}]}
{"molecule": "O=C(Nc1ccc(F)cc1)Nc1ccc(Cl)cc1[N+](=O)[O-]", "values": [{"measurement": "T/C", "setting": "dose: 50.0 mg/kg/injection, schedule: Q01DX009 (ip), vehicle: saline with Tween-80", "result": "94 % of control and 95 % of control"}, {"measurement": "T/C", "setting": "dose: 100.0 mg/kg/injection, schedule: Q01DX001 (ip), vehicle: saline with Tween-80", "result": "100 % of control"}, {"measurement": "T/C", "setting": "dose: 100.0 mg/kg/injection, schedule: Q04DX002 (ip), vehicle: saline with Tween-80", "result": "102 % of control and 92 % of control"}, {"measurement": "T/C", "setting": "[3]", "result": "100 % of control"}, {"measurement": "T/C", "setting": "dose: 200.0 mg/kg/injection, schedule: Q01DX001 (ip), vehicle: saline with Tween-80", "result": "95 % of control"}, {"measurement": "T/C", "setting": "dose: 200.0 mg/kg/injection, schedule: Q04DX002 (ip), vehicle: saline with Tween-80", "result": "95 % of control and 101 % of control"}, {"measurement": "T/C", "setting": "[4]", "result": "97 % of control"}, {"measurement": "T/C", "setting": "dose: 400.0 mg/kg/injection, schedule: Q01DX001 (ip), vehicle: saline with Tween-80", "result": "92 % of control"}, {"measurement": "T/C", "setting": "dose: 400.0 mg/kg/injection, schedule: Q04DX002 (ip), vehicle: saline with Tween-80", "result": "93 % of control and 98 % of control"}, {"measurement": "T/C", "setting": "[5]", "result": "94 % of control"}]}
{"molecule": "CCCN(CCC)N=Nc1ccccc1-c1nc(N)c2ccccc2n1", "values": [{"measurement": "T/C", "setting": "dose: 100.0 mg/kg/injection, schedule: Q04DX003 (ip), vehicle: Klucel (hydroxypropylcellulose) (HPC)", "result": "106 % of control"}, {"measurement": "T/C", "setting": "dose: 200.0 mg/kg/injection, schedule: Q04DX003 (ip), vehicle: Klucel (hydroxypropylcellulose) (HPC)", "result": "98 % of control"}, {"measurement": "T/C", "setting": "dose: 400.0 mg/kg/injection, schedule: Q04DX003 (ip), vehicle: Klucel (hydroxypropylcellulose) (HPC)", "result": "101 % of control"}]}
{"molecule": "CNC1(c2ccccc2)C(=O)CC2CCC1C2", "note": "(stereo unspecified)", "values": [{"measurement": "T/C", "setting": "dose: 50.0 mg/kg/injection, schedule: Q04DX003 (ip), vehicle: saline", "result": "99 % of control"}, {"measurement": "T/C", "setting": "[1]", "result": "105 % of control"}, {"measurement": "T/C", "setting": "dose: 100.0 mg/kg/injection, schedule: Q04DX003 (ip), vehicle: saline", "result": "100 % of control"}, {"measurement": "T/C", "setting": "[2]", "result": "107 % of control"}]}
{"molecule": "Cc1nc2nccnc2[nH]1", "values": [{"measurement": "T/C", "setting": "dose: 100.0 mg/kg/injection, schedule: Q01DX009 (ip), vehicle: saline sonified", "result": "100 % of control"}, {"measurement": "T/C", "setting": "[3]", "result": "96 % of control"}, {"measurement": "T/C", "setting": "dose: 200.0 mg/kg/injection, schedule: Q01DX009 (ip), vehicle: saline sonified", "result": "92 % of control"}, {"measurement": "T/C", "setting": "[4]", "result": "96 % of control"}, {"measurement": "T/C", "setting": "dose: 400.0 mg/kg/injection, schedule: Q01DX009 (ip), vehicle: saline sonified", "result": "96 % of control"}, {"measurement": "T/C", "setting": "[5]", "result": "96 % of control"}]}
